Data from patent publication US20240024273A1, “TOPICAL ADMINISTRATION OF 2-(DIETHYLAMINO)ETHYL 2-(4-ISOBUTYLPHENYL)PROPRIONATE FOR TREATMENT OF DISEASES” (TECHFIELDS PHARMA CO., LTD., priority 2020, published 2024).

Tested on: Subjects with Osteoarthritis of the Knee
Experiment: Second Phase 2 study: safety (treatment-emergent adverse events)
Type: in vivo, human
Design: Serious Treatment-emergent Adverse Event: SAE Criteria: scale not given here
Source text: Safety assessments will be performed at each visit and will include assessment of AEs, vital signs (blood pressure, pulse rate, and oral temperature), clinical laboratories, physical examination, skin irritation, and electrocardiograms (ECGs) as indicated in the study flow chart, Table 47.
Safety assessments will include AEs, vital signs (blood pressures, pulse rate, and oral temperature), clinical laboratories, physical examination, skin irritation, and ECGs at various time points during the study as indicated in the study flow chart.
Adverse events of interest include: local skin reactions around the treated knee(s), upper stomach pain, GI bleeding, serious cardiovascular side effects (e.g., thrombotic events, myocardial infarction, or stroke), jaundice, elevated liver function tests, and nausea.
Safety analyses will be conducted on the SAS. Safety parameters will be listed and summarized using standard descriptive statistics, as appropriate. No formal statistical analyses are planned.

[1] = 4.375 mg, BID, subject 105/07/F64, abdominal aortic aneurysm
[2] = 8.75 mg, BID, subject 279/08/M66, Transient Ischemic Attack

SMILES: CCN(CC)CCOC(=O)C(C)c1ccc(CC(C)C)cc1 (stereo not drawn) [2-(diethylamino)ethyl 2-(4-isobutylphenyl)propionate]
- Serious Treatment-emergent Adverse Event (4.375 mg, BID, subject 105/07/F64, [aortic aneurysm] (Blood and Lymphatic System Disorders)): abdominal aortic aneurysm
- Serious Treatment-emergent Adverse Event: Relationship to Study Drug [1]: Unrelated
- Serious Treatment-emergent Adverse Event: SAE Criteria [1]: 1
- Serious Treatment-emergent Adverse Event: Severity [1]: Severe
- Serious Treatment-emergent Adverse Event: Outcome (4.375 mg, BID, subject 105/07/F64, abdominal aortic aneurysm, cell wraps: Results / in / Death): Death
- GI disorders incidence rate (4.375 mg/knee BID): 4.2%
- incidence rate of AEs possibly, probably, or definitely related to study drug (4.375 mg/knee BID): 33.8%
- infections and infestations incidence rate (4.375 mg/knee BID): 32.4%
- positive fecal occult blood test incidence rate (4.375 mg/knee BID): 7.0%
- Abdominal Pain Upper: number of adverse events (4.375 mg/knee, BID, N = 71): 1
- Abdominal Pain Upper: percentage of subjects with adverse events (4.375 mg/knee, BID, N = 71): 1.4%
- Abdominal Pain Upper: subjects with adverse events (4.375 mg/knee, BID, N = 71): 1
- Administration Site Conditions: number of adverse events (4.375 mg/knee, BID, N = 71): 1
- Administration Site Conditions: percentage of subjects with adverse events (4.375 mg/knee, BID, N = 71): 1.4%
- Administration Site Conditions: subjects with adverse events (4.375 mg/knee, BID, N = 71): 1
- Alanine Aminotransferase Increased: number of adverse events (4.375 mg/knee, BID, N = 71): 1
- Alanine Aminotransferase Increased: percentage of subjects with adverse events (4.375 mg/knee, BID, N = 71): 1.4%
- Alanine Aminotransferase Increased: subjects with adverse events (4.375 mg/knee, BID, N = 71): 1
- Application Site Irritation: number of adverse events (4.375 mg/knee, BID, N = 71): 1
- Application Site Irritation: percentage of subjects with adverse events (4.375 mg/knee, BID, N = 71): 1.4%
- Application Site Irritation: subjects with adverse events (4.375 mg/knee, BID, N = 71): 1
- Aspartate Aminotransferase Increased: number of adverse events (4.375 mg/knee, BID, N = 71): 3
- Aspartate Aminotransferase Increased: percentage of subjects with adverse events (4.375 mg/knee, BID, N = 71): 4.2%
- Aspartate Aminotransferase Increased: subjects with adverse events (4.375 mg/knee, BID, N = 71): 3
- Back Pain: number of adverse events (4.375 mg/knee, BID, N = 71): 1(%)[1]
- Back Pain: subjects with adverse events, number (percentage) (4.375 mg/knee, BID, N = 71): 1(%)[1]
- Blood Alkaline Phosphatase Increased: number of adverse events (4.375 mg/knee, BID, N = 71): 1
- Blood Alkaline Phosphatase Increased: percentage of subjects with adverse events (4.375 mg/knee, BID, N = 71): 1.4%
- Blood Alkaline Phosphatase Increased: subjects with adverse events (4.375 mg/knee, BID, N = 71): 1
- Blood Bilirubin Increased: number of adverse events (4.375 mg/knee, BID, N = 71): 1
- Blood Bilirubin Increased: percentage of subjects with adverse events (4.375 mg/knee, BID, N = 71): 1.4%
- Blood Bilirubin Increased: subjects with adverse events (4.375 mg/knee, BID, N = 71): 1
- Contusion: number of adverse events (4.375 mg/knee, BID, N = 71): 2
- Contusion: subjects with adverse events, number (percentage) (4.375 mg/knee, BID, N = 71): 2(2.8%)
- Cough: number of adverse events (4.375 mg/knee, BID, N = 71): 1
- Cough: subjects with adverse events, number (percentage) (4.375 mg/knee, BID, N = 71): 1(1.4%)
- Ear Pain: number of adverse events (4.375 mg/knee, BID, N = 71): 1(%)[1]
- Ear Pain: subjects with adverse events (4.375 mg/knee, BID, N = 71): 1(%)[1]
- Ear and Labyrinth Disorders: number of adverse events (4.375 mg/knee, BID, N = 71): 1
- Ear and Labyrinth Disorders: percentage of subjects with adverse events (4.375 mg/knee, BID, N = 71): 1.4%
- Ear and Labyrinth Disorders: subjects with adverse events (4.375 mg/knee, BID, N = 71): 1
- Fall: number of adverse events (4.375 mg/knee, BID, N = 71): 1
- Fall: subjects with adverse events, number (percentage) (4.375 mg/knee, BID, N = 71): 1(1.4%)
- Frequency of Positive Fecal Occult Blood Test (4.375 mg/knee, BID, N = 71): 6
- Gamma-Glutamyltransferase Increased: number of adverse events (4.375 mg/knee, BID, N = 71): 2
- Gamma-Glutamyltransferase Increased: percentage of subjects with adverse events (4.375 mg/knee, BID, N = 71): 2.8%
- Gamma-Glutamyltransferase Increased: subjects with adverse events (4.375 mg/knee, BID, N = 71): 2
- Gastrointestinal Disorders: number of adverse events (4.375 mg/knee, BID, N = 71): 3
- Gastrointestinal Disorders: percentage of subjects with adverse events (4.375 mg/knee, BID, N = 71): 4.2%
- Gastrointestinal Disorders: subjects with adverse events (4.375 mg/knee, BID, N = 71): 3
- Headache: number of adverse events (4.375 mg/knee, BID, N = 71): 1
- Headache: subjects with adverse events, number (percentage) (4.375 mg/knee, BID, N = 71): 1(1.4%)
- Hypercholesterolaemia: number of adverse events (4.375 mg/knee, BID, N = 71): 1
- Hypercholesterolaemia: percentage of subjects with adverse events (4.375 mg/knee, BID, N = 71): 1.4%
- Hypercholesterolaemia: subjects with adverse events (4.375 mg/knee, BID, N = 71): 1
- Hypertension: number of adverse events (4.375 mg/knee, BID, N = 71): 1
- Hypertension: percentage of subjects with adverse events (4.375 mg/knee, BID, N = 71): 1.4%
- Hypertension: subjects with adverse events (4.375 mg/knee, BID, N = 71): 1
- Hypertriglyceridemia: number of adverse events (4.375 mg/knee, BID, N = 71): 6
- Hypertriglyceridemia: percentage of subjects with adverse events (4.375 mg/knee, BID, N = 71): 7.0%
- Hypertriglyceridemia: subjects with adverse events (4.375 mg/knee, BID, N = 71): 5
- Infections and Infestations: number of adverse events (4.375 mg/knee, BID, N = 71): 24
- Infections and Infestations: subjects with adverse events, number (percentage) (4.375 mg/knee, BID, N = 71): 23(32.4%)
- Influenza: number of adverse events (4.375 mg/knee, BID, N = 71): 3
- Injury, Poisoning and Procedural Complications: number of adverse events (4.375 mg/knee, BID, N = 71): 3
- Investigations: number of adverse events (4.375 mg/knee, BID, N = 71): 11
- Investigations: percentage of subjects with adverse events (4.375 mg/knee, BID, N = 71): 15.5%
- Investigations: subjects with adverse events (4.375 mg/knee, BID, N = 71): 11
- Metabolism and Nutrition Disorders: number of adverse events (4.375 mg/knee, BID, N = 71): 7
- Metabolism and Nutrition Disorders: percentage of subjects with adverse events (4.375 mg/knee, BID, N = 71): 8.5%
- Metabolism and Nutrition Disorders: subjects with adverse events (4.375 mg/knee, BID, N = 71): 6
- Musculoskeletal Pain: number of adverse events (4.375 mg/knee, BID, N = 71): 1(%)[1]
- Musculoskeletal Pain: subjects with adverse events, number (percentage) (4.375 mg/knee, BID, N = 71): 1(%)[1]
- Musculoskeletal and Connective Tissue Disorders, Overall Total: number of adverse events (4.375 mg/knee, BID, N = 71): 3
- Neck Pain: number of adverse events (4.375 mg/knee, BID, N = 71): 1(%)[1]
- Neck Pain: subjects with adverse events, number (percentage) (4.375 mg/knee, BID, N = 71): 1(%)[1]
- Nervous System Disorders: number of adverse events (4.375 mg/knee, BID, N = 71): 1
- Nervous System Disorders: subjects with adverse events, number (percentage) (4.375 mg/knee, BID, N = 71): 1(1.4%)
- Oropharyngeal Pain: number of adverse events (4.375 mg/knee, BID, N = 71): 2
- Oropharyngeal Pain: subjects with adverse events, number (percentage) (4.375 mg/knee, BID, N = 71): 2(1.4%)
- Rash: number of adverse events (4.375 mg/knee, BID, N = 71): 1
- Rash: percentage of subjects with adverse events (4.375 mg/knee, BID, N = 71): 1.4%
- Rash: subjects with adverse events (4.375 mg/knee, BID, N = 71): 1
- Respiratory, Thoracic and Mediastinal Disorders: number of adverse events (4.375 mg/knee, BID, N = 71): 6
- Respiratory, Thoracic and Mediastinal Disorders: subjects with adverse events, number (percentage) (4.375 mg/knee, BID, N = 71): 6(8.5%)
- Rhinorrhoea: number of adverse events (4.375 mg/knee, BID, N = 71): 1
- Rhinorrhoea: subjects with adverse events, number (percentage) (4.375 mg/knee, BID, N = 71): 1(1.4%)
- Skin Irritation: number of adverse events (4.375 mg/knee, BID, N = 71): 1
- Skin Irritation: percentage of subjects with adverse events (4.375 mg/knee, BID, N = 71): 1.4%
- Skin Irritation: subjects with adverse events (4.375 mg/knee, BID, N = 71): 1
- Skin and Subcutaneous Tissue Disorders: number of adverse events (4.375 mg/knee, BID, N = 71): 2
- Skin and Subcutaneous Tissue Disorders: percentage of subjects with adverse events (4.375 mg/knee, BID, N = 71): 2.8%
- Skin and Subcutaneous Tissue Disorders: subjects with adverse events (4.375 mg/knee, BID, N = 71): 2
- Subjects with Positive Fecal Occult Blood Test (4.375 mg/knee, BID, N = 71): 5
- Subjects with Positive Fecal Occult Blood Test, percentage (4.375 mg/knee, BID, N = 71): 7.0%
- Throat Irritation: number of adverse events (4.375 mg/knee, BID, N = 71): 2
- Throat Irritation: subjects with adverse events, number (percentage) (4.375 mg/knee, BID, N = 71): 2(2.8%)
- Toothache: number of adverse events (4.375 mg/knee, BID, N = 71): 2
- Toothache: percentage of subjects with adverse events (4.375 mg/knee, BID, N = 71): 2.8%
- Toothache: subjects with adverse events (4.375 mg/knee, BID, N = 71): 2
- Transaminases Increased: number of adverse events (4.375 mg/knee, BID, N = 71): 1
- Transaminases Increased: percentage of subjects with adverse events (4.375 mg/knee, BID, N = 71): 1.4%
- Transaminases Increased: subjects with adverse events (4.375 mg/knee, BID, N = 71): 1
- Upper Respiratory Tract Infection: number of adverse events (4.375 mg/knee, BID, N = 71): 12
- Urinary Tract Infection: number of adverse events (4.375 mg/knee, BID, N = 71): 8
- Urinary Tract Infection: subjects with adverse events, number (percentage) (4.375 mg/knee, BID, N = 71): 8(11.3%)
- Vascular Disorders: number of adverse events (4.375 mg/knee, BID, N = 71): 1
- Vascular Disorders: percentage of subjects with adverse events (4.375 mg/knee, BID, N = 71): 1.4%
- Vascular Disorders: subjects with adverse events (4.375 mg/knee, BID, N = 71): 1
- White Blood Cell Count Decreased: number of adverse events (4.375 mg/knee, BID, N = 71): 2
- White Blood Cell Count Decreased: percentage of subjects with adverse events (4.375 mg/knee, BID, N = 71): 2.8%
- White Blood Cell Count Decreased: subjects with adverse events (4.375 mg/knee, BID, N = 71): 2
- Serious Treatment-emergent Adverse Event: Duration [2]: < 11 days
- Serious Treatment-emergent Adverse Event: SAE Criteria [2]: 6
- Serious Treatment-emergent Adverse Event: Severity [2]: Severe
- Serious Treatment-emergent Adverse Event: Relationship to Study Drug (8.75 mg, BID, subject 279/08/M66, Transient Ischemic Attack, cell wraps: Possible / unrelated): Possible
- Serious Treatment-emergent Adverse Event: Outcome (8.75 mg, BID, subject 279/08/M66, Transient Ischemic Attack, cell wraps: Recovered/ resolved): Recovered/
- Serious Treatment-emergent Adverse Event (8.75 mg, BID, subject 279/08/M66, [Thrombosis] (Vascular Disorders)): Transient Ischemic Attack
- GI disorders incidence rate (8.75 mg/knee (BID)): 14.3%
- incidence rate of AEs possibly, probably, or definitely related to study drug (8.75 mg/knee (BID)): 41.4%
- infections and infestations incidence rate (8.75 mg/knee (BID)): 28.6%
- positive fecal occult blood test incidence rate (8.75 mg/knee (BID)): 7.1%
- Abdominal Discomfort: number of adverse events (8.75 mg/knee, BID, N = 70): 4
